Experimental data taken from PubChem BioAssay AID1259407 (Chemical Carcinogenesis Research Information System (CCRIS), 2018).
Active and inactive are the calls of the source. How the calls were made is not given here.

Test system: CCRIS mutagenicity, Ames/micronucleus/aberration tests
Test: CCRIS mutagenicity studies
[1] = Test System: AMES SALMONELLA TYPHIMURIUM, Strain/Indicator: TA100, Metabolic Activation: NONE, Method: PREINCUBATION
[2] = Test System: AMES SALMONELLA TYPHIMURIUM, Strain/Indicator: TA1535, Metabolic Activation: NONE, Method: PREINCUBATION
[3] = Test System: AMES SALMONELLA TYPHIMURIUM, Strain/Indicator: TA98, Metabolic Activation: NONE, Method: PREINCUBATION
[4] = Test System: AMES SALMONELLA TYPHIMURIUM, Strain/Indicator: TA1537, Metabolic Activation: NONE, Method: PREINCUBATION

Compound: Nc1ccccc1S(=O)(=O)O
- mutagenic call (Test System: AMES SALMONELLA TYPHIMURIUM, Strain/Indicator: TA97, Metabolic Activation: HAMSTER, LIVER, S-9, AROCLOR 1254 (10 OR 30%), Method: PREINCUBATION): inactive; negative
- mutagenic call (Test System: AMES SALMONELLA TYPHIMURIUM, Strain/Indicator: TA97, Metabolic Activation: NONE, Method: PREINCUBATION): inactive; negative
- mutagenic call (Test System: AMES SALMONELLA TYPHIMURIUM, Strain/Indicator: TA97, Metabolic Activation: RAT, LIVER, S-9, AROCLOR 1254 (10%), Method: PREINCUBATION): inactive; negative
- mutagenic call (Test System: AMES SALMONELLA TYPHIMURIUM, Strain/Indicator: TA97, Metabolic Activation: RAT, LIVER, S-9, AROCLOR 1254 (30%), Method: PREINCUBATION): inactive; negative
- mutagenic call (Test System: AMES SALMONELLA TYPHIMURIUM, Strain/Indicator: TA98, Metabolic Activation: HAMSTER, LIVER, S-9, AROCLOR 1254 (10 OR 30%), Method: PREINCUBATION): inactive; negative
- mutagenic call (Test System: AMES SALMONELLA TYPHIMURIUM, Strain/Indicator: TA98, Metabolic Activation: RAT, LIVER, S-9, AROCLOR 1254 (10 OR 30%), Method: PREINCUBATION): inactive; negative
- mutagenic call (Test System: AMES SALMONELLA TYPHIMURIUM, Strain/Indicator: TA100, Metabolic Activation: HAMSTER, LIVER, S-9, AROCLOR 1254 (10 OR 30%), Method: PREINCUBATION): inactive; negative
- mutagenic call [1]: inactive; negative
- mutagenic call (Test System: AMES SALMONELLA TYPHIMURIUM, Strain/Indicator: TA100, Metabolic Activation: RAT, LIVER, S-9, AROCLOR 1254 (10 OR 30%), Method: PREINCUBATION): inactive; negative
- mutagenic call (Test System: AMES SALMONELLA TYPHIMURIUM, Strain/Indicator: TA1535, Metabolic Activation: HAMSTER, LIVER, S-9, AROCLOR 1254 (10 OR 30%), Method: PREINCUBATION): inactive; negative
- mutagenic call [2]: inactive; negative
- mutagenic call (Test System: AMES SALMONELLA TYPHIMURIUM, Strain/Indicator: TA1535, Metabolic Activation: RAT, LIVER, S-9, AROCLOR 1254 (10 OR 30%), Method: PREINCUBATION): inactive; negative

Compound: CS(=O)(=O)Nc1ccc(Nc2c3ccccc3nc3ccc(N=[N+]=[N-])cc23)cc1
- mutagenic call (Test System: AMES SALMONELLA TYPHIMURIUM, Strain/Indicator: TA1537, Metabolic Activation: NONE, Method: STANDARD PLATE): active; positive

Compound: O=[N+]([O-])C(Br)Br
- mutagenic call (Test System: Ames Salmonella typhimurium, Strain/Indicator: RSJ100, Metabolic Activation: None, Method: Standard plate): inactive; negative
- mutagenic call (Test System: Ames Salmonella typhimurium, Strain/Indicator: RSJ100, Metabolic Activation: Rat, Liver, S-9, Aroclor, Method: Standard plate): inactive; negative
- mutagenic call (Test System: Ames Salmonella typhimurium, Strain/Indicator: TA98, Metabolic Activation: None, Method: Standard plate): inactive; negative
- mutagenic call (Test System: Ames Salmonella typhimurium, Strain/Indicator: TA98, Metabolic Activation: Rat, Liver, S-9, Aroclor, Method: Standard plate): inactive; negative
- mutagenic call (Test System: Ames Salmonella typhimurium, Strain/Indicator: TA100, Metabolic Activation: None, Method: Standard plate): active; positive
- mutagenic call (Test System: Ames Salmonella typhimurium, Strain/Indicator: TA100, Metabolic Activation: Rat, Liver, S-9, Aroclor, Method: Standard plate): active; positive
- mutagenic call (Test System: Ames Salmonella typhimurium, Strain/Indicator: TA104, Metabolic Activation: None, Method: Standard plate): inactive; negative
- mutagenic call (Test System: Ames Salmonella typhimurium, Strain/Indicator: TA104, Metabolic Activation: Rat, Liver, S-9, Aroclor, Method: Standard plate): inactive; negative
- mutagenic call (Test System: Ames Salmonella typhimurium, Strain/Indicator: TPT100, Metabolic Activation: None, Method: Standard plate): inactive; negative

Compound: O=S(=O)(O)Oc1ccc2cc3ccc4cccc5ccc(c2c1)c3c45
- mutagenic call [3]: inactive; negative
- mutagenic call (Test System: AMES SALMONELLA TYPHIMURIUM, Strain/Indicator: TA98, Metabolic Activation: RAT, LUNG, S-9, Method: PREINCUBATION): inactive; negative

Compound: CC(=O)CCCCn1c(=O)c2c(ncn2C)n(C)c1=O
- mutagenic call (End Point: IN VITRO CHROMOSOMAL ABERRATIONS, Test System: HUMAN PERIPHERAL BLOOD LYMPHOCYTES, Metabolic Activation: NONE): active; positive (structural changes)
- mutagenic call (End Point: IN VITRO CHROMOSOMAL ABERRATIONS, Test System: V79 CELLS, Metabolic Activation: NONE): active; positive (structural changes)
- mutagenic call (End Point: IN VITRO MICRONUCLEUS, Test System: HUMAN PERIPHERAL BLOOD LYMPHOCYTES, Metabolic Activation: NONE): active; positive
- mutagenic call (End Point: IN VITRO MICRONUCLEUS, Test System: V79 CELLS, Metabolic Activation: NONE): active; positive
- mutagenic call (Test System: CHINESE HAMSTER V-79, Strain/Indicator: V-79 (HGPRT)/6-THIOGUANINE, Metabolic Activation: NONE): inactive; negative
- mutagenic call (Test System: CHINESE HAMSTER V-79, Strain/Indicator: V-79 (HGPRT)/6-THIOGUANINE, Metabolic Activation: S-9): inactive; negative

Compound: CC[C@H](C)[C@H](NC(=O)[C@@H](NC(=O)[C@H](CCC(=O)O)NC(=O)[C@H](CCSC)NC(=O)[C@H](CC(C)C)NC(=O)[C@H](CCCCN)NC(=O)[C@H](CCCNC(=N)N)NC(=O)[C@H](CC(N)=O)NC(=O)[C@H](CO)NC(=O)[C@H](Cc1c[nH]cn1)NC(=O)[C@H](C)NC(=O)[C@H](CCC(N)=O)NC(=O)[C@H](CCC(N)=O)NC(=O)[C@H](C)NC(=O)[C@H](CC(C)C)NC(=O)[C@H](CCC(N)=O)NC(=O)[C@H](CCC(=O)O)NC(=O)[C@H](C)NC(=O)[C@H](CCCNC(=N)N)NC(=O)[C@H](C)NC(=O)[C@H](CCSC)NC(=O)[C@H](CCC(=O)O)NC(=O)[C@H](CC(C)C)NC(=O)[C@@H](NC(=O)[C@H](CCC(=O)O)NC(=O)[C@H](CCCNC(=N)N)NC(=O)[C@H](CC(C)C)NC(=O)[C@H](CC(C)C)NC(=O)[C@H](Cc1c[nH]cn1)NC(=O)[C@H](Cc1ccccc1)NC(=O)[C@@H](NC(=O)[C@H](CC(C)C)NC(=O)[C@H](CC(=O)O)NC(=O)[C@H](CC(C)C)NC(=O)[C@H](CO)NC(=O)[C@@H](NC(=O)[C@@H]1CCCN1C(=O)[C@@H]1CCCN1C(=O)[C@H](CCC(=O)O)NC(=O)[C@H](CCC(=O)O)NC(=O)[C@@H](N)CO)[C@@H](C)CC)[C@@H](C)O)C(C)C)[C@@H](C)CC)C(N)=O
- mutagenic call [3]: inactive; negative
- mutagenic call (Test System: AMES SALMONELLA TYPHIMURIUM, Strain/Indicator: TA98, Metabolic Activation: RAT, LIVER, S-9, PHENOBARBITAL AND 5,6-BENZOFLAVONE, Method: PREINCUBATION): inactive; negative
- mutagenic call [1]: inactive; negative
- mutagenic call (Test System: AMES SALMONELLA TYPHIMURIUM, Strain/Indicator: TA100, Metabolic Activation: RAT, LIVER, S-9, PHENOBARBITAL AND 5,6-BENZOFLAVONE, Method: PREINCUBATION): inactive; negative
- mutagenic call [2]: inactive; negative
- mutagenic call (Test System: AMES SALMONELLA TYPHIMURIUM, Strain/Indicator: TA1535, Metabolic Activation: RAT, LIVER, S-9, PHENOBARBITAL AND 5,6-BENZOFLAVONE, Method: PREINCUBATION): inactive; negative
- mutagenic call [4]: inactive; negative
- mutagenic call (Test System: AMES SALMONELLA TYPHIMURIUM, Strain/Indicator: TA1537, Metabolic Activation: RAT, LIVER, S-9, PHENOBARBITAL AND 5,6-BENZOFLAVONE, Method: PREINCUBATION): inactive; negative
- mutagenic call (Test System: E. COLI, Strain/Indicator: WP2 UVRA, Metabolic Activation: NONE, Method: PREINCUBATION): inactive; negative
- mutagenic call (Test System: E. COLI, Strain/Indicator: WP2 UVRA, Metabolic Activation: RAT, LIVER, S-9, PHENOBARBITAL AND 5,6-BENZOFLAVONE, Method: PREINCUBATION): inactive; negative

Compound: CC(N)CN (configuration not stated)
- mutagenic call (Test System: AMES SALMONELLA TYPHIMURIUM, Strain/Indicator: TA98, Metabolic Activation: HAMSTER, LIVER, S-9, AROCLOR 1254 (10%), Method: PREINCUBATION): inactive; negative
- mutagenic call [3]: inactive; negative
- mutagenic call (Test System: AMES SALMONELLA TYPHIMURIUM, Strain/Indicator: TA98, Metabolic Activation: RAT, LIVER, S-9, AROCLOR 1254 (10%), Method: PREINCUBATION): inactive; negative
- mutagenic call (Test System: AMES SALMONELLA TYPHIMURIUM, Strain/Indicator: TA100, Metabolic Activation: HAMSTER, LIVER, S-9, AROCLOR 1254 (10%), Method: PREINCUBATION): inactive; negative
- mutagenic call [1]: inactive; negative
- mutagenic call (Test System: AMES SALMONELLA TYPHIMURIUM, Strain/Indicator: TA100, Metabolic Activation: RAT, LIVER, S-9, AROCLOR 1254 (10%), Method: PREINCUBATION): inactive; negative
- mutagenic call (Test System: AMES SALMONELLA TYPHIMURIUM, Strain/Indicator: TA1535, Metabolic Activation: HAMSTER, LIVER, S-9, AROCLOR 1254 (10%), Method: PREINCUBATION): inactive; negative
- mutagenic call [2]: inactive; negative
- mutagenic call (Test System: AMES SALMONELLA TYPHIMURIUM, Strain/Indicator: TA1535, Metabolic Activation: RAT, LIVER, S-9, AROCLOR 1254 (10%), Method: PREINCUBATION): inactive; negative
- mutagenic call (Test System: AMES SALMONELLA TYPHIMURIUM, Strain/Indicator: TA1537, Metabolic Activation: HAMSTER, LIVER, S-9, AROCLOR 1254 (10%), Method: PREINCUBATION): inactive; negative
- mutagenic call [4]: inactive; negative
- mutagenic call (Test System: AMES SALMONELLA TYPHIMURIUM, Strain/Indicator: TA1537, Metabolic Activation: RAT, LIVER, S-9, AROCLOR 1254 (10%), Method: PREINCUBATION): inactive; negative
